According to ChEMBL document CHEMBL5500396, “Discovery, Multiparametric Optimization, and Solid-State Driven Identification of CHF-6550, a Novel Soft Dual Pharmacology Muscarinic Antagonist and β2 Agonist (MABA) for the Inhaled Treatment of Respiratory Diseases” (J Med Chem, 2024):
pIC50, pKi: −log10 of the molar value.

Tests used:
[1] = organism: Cavia porcellus; assay: animal or person; settings: albino Dunkin-Hartley, 16 h, read-out: INH
Description: Inhibition of acetylcholine induced bronchoconstriction in male albino Dunkin-Hartley guinea pig model at 0.3 nmol/kg, IT(Intratracheal) preadministered with compound followed by acetylcholine addition at 5 to 30 mins in presence of ICI-118551 and measured 16 hrs post compound treatment relative to control

[2] = system: Cavia porcellus; assay: Inhibition of histamine induced bronchoconstriction in male albino Dunkin-Hartley guinea pig model at 0.3 nmol/kg, IT(Intratracheal) preadministered with compound followed by histamine addition at 5 to 30 mins and measured 16 hrs post compound treatment relative to control; settings: read-out: INH
[3] = system: Cavia porcellus; assay: Bronchodilating effect in acetylcholine induced male albino Dunkin-Hartley guinea pig model assessed as maximal efficacy at 0.3 nmol/kg, IT(Intratracheal) administered with compound followed by acetylcholine addition at 5 to 30 mins and measured 1 hrs post compound treatment relative to control
[4] = in vivo; settings: rat, iv, 125 ug
Description: Volume of distribution at steady state in rat at 125 ug, iv measured after 1 hrs by LC-MS analysis

[5] = system: Cavia porcellus; assay: Inhibition of acetylcholine induced bronchoconstriction in male albino Dunkin-Hartley guinea pig model at 0.3 nmol/kg, IT(Intratracheal) preadministered with compound followed by acetylcholine addition at 5 to 30 mins and measured 1 hrs post compound treatment relative to control; settings: read-out: INH
[6] = in vivo; settings: rat, iv, 125 ug; remark: listed apart in the source
Description: Clearance in rat at 125 ug, iv measured after 1 hrs by LC-MS analysis

[7] = Stability in guinea pig lung S9 fraction at 1 uM incubated for 60 mins by LC-MS/MS analysis
[8] = target: Voltage-gated inwardly rectifying potassium channel KCNH2 (Homo sapiens, UniProt Q12809)
Description: Inhibition of human ERG by patch clamp assay

[9] = in vitro; settings: human, plasma
Description: Stability in human plasma assessed as half-life at 5 uM incubated for 120 mins by LC-MS/MS analysis

[10] = organism: Cavia porcellus; assay: animal or person; settings: albino Dunkin-Hartley, 1 h, read-out: INH
Description: Inhibition of acetylcholine induced bronchoconstriction in male albino Dunkin-Hartley guinea pig model at 0.3 nmol/kg, IT(Intratracheal) preadministered with compound followed by acetylcholine addition at 5 to 30 mins in presence of ICI-118551 and measured 1 hrs post compound treatment relative to control

[11] = in vitro; settings: rat, hepatocytes
Description: Metabolic stability in rat hepatocytes assessed as clearance measured per 10^6 cells at 1 uM incubated for 90 mins by LC-MS/MS analysis

[12] = target: Sodium channel protein type 5 subunit alpha (Homo sapiens, UniProt Q14524)
Sequence of Sodium channel protein type 5 subunit alpha (Q14524 whole entry): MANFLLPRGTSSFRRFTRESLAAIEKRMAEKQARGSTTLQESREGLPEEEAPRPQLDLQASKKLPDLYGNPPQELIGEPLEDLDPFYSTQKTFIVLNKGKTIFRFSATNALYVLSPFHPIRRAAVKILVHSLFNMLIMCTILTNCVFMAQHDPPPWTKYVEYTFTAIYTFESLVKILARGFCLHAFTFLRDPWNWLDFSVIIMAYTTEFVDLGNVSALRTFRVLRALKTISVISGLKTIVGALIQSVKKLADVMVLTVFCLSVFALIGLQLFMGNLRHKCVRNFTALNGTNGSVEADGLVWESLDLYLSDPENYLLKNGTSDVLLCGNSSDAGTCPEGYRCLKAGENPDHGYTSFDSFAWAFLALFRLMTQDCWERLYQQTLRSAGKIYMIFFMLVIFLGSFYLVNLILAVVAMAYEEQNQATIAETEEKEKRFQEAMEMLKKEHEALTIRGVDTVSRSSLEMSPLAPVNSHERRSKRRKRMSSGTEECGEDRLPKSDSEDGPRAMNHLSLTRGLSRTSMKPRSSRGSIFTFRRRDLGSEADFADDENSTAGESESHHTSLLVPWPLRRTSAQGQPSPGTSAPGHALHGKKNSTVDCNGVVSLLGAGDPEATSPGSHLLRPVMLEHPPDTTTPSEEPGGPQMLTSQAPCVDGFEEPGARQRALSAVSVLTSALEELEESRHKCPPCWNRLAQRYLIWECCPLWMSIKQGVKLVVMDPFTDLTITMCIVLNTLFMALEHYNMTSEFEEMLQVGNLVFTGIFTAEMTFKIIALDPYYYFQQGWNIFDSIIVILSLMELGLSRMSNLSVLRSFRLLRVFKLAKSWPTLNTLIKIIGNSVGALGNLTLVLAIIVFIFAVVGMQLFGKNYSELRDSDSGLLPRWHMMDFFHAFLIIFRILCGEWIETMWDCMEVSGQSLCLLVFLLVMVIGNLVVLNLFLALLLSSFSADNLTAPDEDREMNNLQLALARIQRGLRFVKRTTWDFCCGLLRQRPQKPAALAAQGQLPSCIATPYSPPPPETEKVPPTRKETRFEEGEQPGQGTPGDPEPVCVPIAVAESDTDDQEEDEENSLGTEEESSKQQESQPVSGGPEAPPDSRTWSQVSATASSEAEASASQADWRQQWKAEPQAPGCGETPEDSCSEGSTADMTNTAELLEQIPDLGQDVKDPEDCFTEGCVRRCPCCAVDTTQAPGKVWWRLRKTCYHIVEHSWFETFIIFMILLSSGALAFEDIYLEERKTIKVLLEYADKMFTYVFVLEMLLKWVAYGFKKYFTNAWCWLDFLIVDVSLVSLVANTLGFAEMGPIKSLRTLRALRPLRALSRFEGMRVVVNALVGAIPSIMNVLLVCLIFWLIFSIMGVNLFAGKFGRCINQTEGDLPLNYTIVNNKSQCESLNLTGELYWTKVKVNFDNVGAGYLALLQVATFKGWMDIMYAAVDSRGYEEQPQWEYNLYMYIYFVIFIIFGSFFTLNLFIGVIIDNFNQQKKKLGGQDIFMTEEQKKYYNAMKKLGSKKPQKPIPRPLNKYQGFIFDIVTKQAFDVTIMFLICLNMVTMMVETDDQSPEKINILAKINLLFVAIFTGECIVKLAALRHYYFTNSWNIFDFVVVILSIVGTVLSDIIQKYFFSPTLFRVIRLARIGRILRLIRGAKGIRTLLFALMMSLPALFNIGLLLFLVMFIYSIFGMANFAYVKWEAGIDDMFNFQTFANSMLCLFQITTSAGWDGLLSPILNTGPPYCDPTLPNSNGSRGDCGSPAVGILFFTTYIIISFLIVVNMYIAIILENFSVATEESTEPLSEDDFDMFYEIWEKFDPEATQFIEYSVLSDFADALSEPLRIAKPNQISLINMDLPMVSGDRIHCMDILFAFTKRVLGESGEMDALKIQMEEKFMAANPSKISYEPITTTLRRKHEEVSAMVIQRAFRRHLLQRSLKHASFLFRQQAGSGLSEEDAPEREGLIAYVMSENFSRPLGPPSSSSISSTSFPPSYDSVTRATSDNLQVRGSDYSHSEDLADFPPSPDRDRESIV
Description: Inhibition of human Nav1.5

[13] = target: Beta-2 adrenergic receptor (Cavia porcellus, UniProt Q8K4Z4); assay: Agonist activity at beta2 adrenoceptor in male albino Dunkin-Hartley guinea pig trachea assessed as inhibition of histamine induced smooth muscle contraction
Sequence of Beta-2 adrenergic receptor (Cavia porcellus, UniProt Q8K4Z4) (Q8K4Z4 whole entry): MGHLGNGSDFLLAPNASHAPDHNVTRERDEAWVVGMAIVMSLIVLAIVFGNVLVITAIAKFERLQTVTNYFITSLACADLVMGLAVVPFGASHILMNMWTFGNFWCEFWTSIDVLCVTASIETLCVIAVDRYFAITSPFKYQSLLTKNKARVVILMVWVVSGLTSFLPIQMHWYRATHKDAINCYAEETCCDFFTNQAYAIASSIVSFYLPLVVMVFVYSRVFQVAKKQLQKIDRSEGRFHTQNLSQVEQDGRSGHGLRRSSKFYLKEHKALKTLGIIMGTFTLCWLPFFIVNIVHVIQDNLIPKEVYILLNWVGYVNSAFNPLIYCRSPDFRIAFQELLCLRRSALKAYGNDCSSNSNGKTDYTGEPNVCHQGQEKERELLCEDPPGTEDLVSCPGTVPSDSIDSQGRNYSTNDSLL

[14] = target: Voltage-dependent L-type calcium channel subunit alpha-1C (Homo sapiens, UniProt Q13936)
Sequence of Voltage-dependent L-type calcium channel subunit alpha-1C (Q13936 whole entry): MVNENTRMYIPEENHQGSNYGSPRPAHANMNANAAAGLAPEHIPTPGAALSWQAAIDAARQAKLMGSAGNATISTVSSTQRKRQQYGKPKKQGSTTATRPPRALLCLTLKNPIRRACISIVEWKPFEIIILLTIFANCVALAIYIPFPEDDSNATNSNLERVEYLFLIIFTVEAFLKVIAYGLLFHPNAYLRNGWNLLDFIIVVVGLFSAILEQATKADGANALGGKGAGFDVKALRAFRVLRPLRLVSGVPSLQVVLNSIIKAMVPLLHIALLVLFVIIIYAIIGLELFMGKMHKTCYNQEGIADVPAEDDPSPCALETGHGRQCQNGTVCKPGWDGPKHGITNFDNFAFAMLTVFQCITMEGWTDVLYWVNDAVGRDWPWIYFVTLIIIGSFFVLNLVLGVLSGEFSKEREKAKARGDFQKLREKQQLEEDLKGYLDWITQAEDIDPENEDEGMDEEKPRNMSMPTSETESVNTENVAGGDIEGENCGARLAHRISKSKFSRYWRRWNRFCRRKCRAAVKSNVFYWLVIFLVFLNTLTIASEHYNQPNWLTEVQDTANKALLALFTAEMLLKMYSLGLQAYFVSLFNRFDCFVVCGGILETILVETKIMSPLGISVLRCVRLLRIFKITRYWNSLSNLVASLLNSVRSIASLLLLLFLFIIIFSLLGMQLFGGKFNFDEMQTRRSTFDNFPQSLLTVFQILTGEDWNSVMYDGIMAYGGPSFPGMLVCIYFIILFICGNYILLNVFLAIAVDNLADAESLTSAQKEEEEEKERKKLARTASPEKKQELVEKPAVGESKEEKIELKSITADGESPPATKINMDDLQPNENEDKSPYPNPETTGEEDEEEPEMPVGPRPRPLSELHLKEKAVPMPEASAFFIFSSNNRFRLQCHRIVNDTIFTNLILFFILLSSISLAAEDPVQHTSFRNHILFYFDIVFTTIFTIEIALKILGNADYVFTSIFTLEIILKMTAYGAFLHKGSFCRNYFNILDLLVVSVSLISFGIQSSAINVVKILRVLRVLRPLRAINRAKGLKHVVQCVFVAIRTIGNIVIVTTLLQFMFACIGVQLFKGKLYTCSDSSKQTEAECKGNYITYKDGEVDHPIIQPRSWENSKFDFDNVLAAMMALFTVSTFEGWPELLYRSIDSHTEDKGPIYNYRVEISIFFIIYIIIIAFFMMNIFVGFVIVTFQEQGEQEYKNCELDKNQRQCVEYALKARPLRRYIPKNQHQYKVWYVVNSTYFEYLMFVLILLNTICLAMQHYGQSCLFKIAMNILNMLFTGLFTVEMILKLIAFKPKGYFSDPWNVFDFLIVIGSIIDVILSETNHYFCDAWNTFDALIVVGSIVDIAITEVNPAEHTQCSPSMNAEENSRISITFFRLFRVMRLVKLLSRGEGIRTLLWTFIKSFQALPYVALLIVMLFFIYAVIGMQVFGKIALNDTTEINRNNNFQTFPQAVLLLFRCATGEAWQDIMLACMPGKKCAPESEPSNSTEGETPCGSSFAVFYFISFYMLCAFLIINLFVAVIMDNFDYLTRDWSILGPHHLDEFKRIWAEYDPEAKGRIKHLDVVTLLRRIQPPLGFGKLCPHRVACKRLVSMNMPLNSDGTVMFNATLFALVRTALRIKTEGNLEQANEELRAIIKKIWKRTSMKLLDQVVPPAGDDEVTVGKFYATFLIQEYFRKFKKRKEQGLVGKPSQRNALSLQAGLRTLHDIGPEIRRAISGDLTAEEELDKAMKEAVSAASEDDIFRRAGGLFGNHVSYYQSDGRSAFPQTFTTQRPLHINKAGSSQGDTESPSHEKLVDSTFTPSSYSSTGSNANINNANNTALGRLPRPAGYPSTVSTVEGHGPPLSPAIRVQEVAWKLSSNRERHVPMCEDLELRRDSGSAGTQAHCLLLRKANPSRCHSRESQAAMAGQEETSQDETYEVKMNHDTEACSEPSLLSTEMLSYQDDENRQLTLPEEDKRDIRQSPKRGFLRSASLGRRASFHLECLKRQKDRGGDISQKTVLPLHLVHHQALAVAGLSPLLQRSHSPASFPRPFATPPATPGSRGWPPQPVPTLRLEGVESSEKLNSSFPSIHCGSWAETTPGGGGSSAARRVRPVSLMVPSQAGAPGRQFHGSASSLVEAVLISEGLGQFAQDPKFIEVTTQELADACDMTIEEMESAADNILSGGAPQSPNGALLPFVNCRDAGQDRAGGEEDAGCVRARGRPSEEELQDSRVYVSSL
Description: Inhibition of human Cav1.2

[15] = target: Beta-2 adrenergic receptor (Homo sapiens, UniProt P07550)
Sequence of Beta-2 adrenergic receptor (Homo sapiens, UniProt P07550) (P07550 whole entry): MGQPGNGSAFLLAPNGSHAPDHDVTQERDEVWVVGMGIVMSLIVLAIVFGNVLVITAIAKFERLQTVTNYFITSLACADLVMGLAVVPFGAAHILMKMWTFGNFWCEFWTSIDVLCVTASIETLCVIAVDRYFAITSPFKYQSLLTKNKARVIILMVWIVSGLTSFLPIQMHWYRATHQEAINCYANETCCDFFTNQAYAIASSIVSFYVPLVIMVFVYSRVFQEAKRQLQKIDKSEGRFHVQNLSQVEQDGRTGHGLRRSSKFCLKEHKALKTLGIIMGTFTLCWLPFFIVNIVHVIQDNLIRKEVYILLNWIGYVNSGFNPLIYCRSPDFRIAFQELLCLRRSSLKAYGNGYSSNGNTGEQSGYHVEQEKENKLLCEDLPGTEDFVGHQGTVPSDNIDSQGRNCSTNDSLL
Description: Displacement of [125I]-Cyanopindolol from human beta2 adrenoceptor assessed as inhibition constant incubated for 1 hrs by Microbeta scintillation counter

[16] = in vitro; settings: guinea pig, plasma
Description: Stability in guinea pig plasma assessed as half-life at 5 uM incubated for 120 mins by LC-MS/MS analysis

[17] = Half-life in guinea pig at 3 nmol/kg, IT(Intratracheal) administered as dry powder; settings: in vivo, inhaled or intranasal
[18] = in vivo; settings: male, Dunkin-Hartley, guinea pig, inhaled or intranasal, 1 mM
Description: Toxicity in male albino Dunkin-Hartley guinea pig model assessed as inhibition of carbachol-induced salivation at 1 mM, preadministered with compound for 10 mins via aerosol followed by anesthesia treatment 3 hrs post compound addition and further treated with carbachol and measured every 5 mins for 4 times

[19] = in vitro; settings: rat, plasma
Description: Stability in rat plasma assessed as half-life at 5 uM incubated for 120 mins by LC-MS/MS analysis

[20] = organism: Cavia porcellus; assay: animal or person; settings: albino Dunkin-Hartley, 1 h
Description: Bronchodilating effect in acetylcholine induced male albino Dunkin-Hartley guinea pig model assessed as maximal efficacy at 0.3 nmol/kg, IT(Intratracheal) administered with compound followed by acetylcholine addition at 5 to 30 mins in presence of ICI-118551 and measured 1 hrs post compound treatment relative to control

[21] = system: Cavia porcellus; assay: Inhibition of acetylcholine induced bronchoconstriction in male albino Dunkin-Hartley guinea pig model at 0.3 nmol/kg, IT(Intratracheal) preadministered with compound followed by acetylcholine addition at 5 to 30 mins and measured 16 hrs post compound treatment relative to control; settings: read-out: INH
[22] = system: Cavia porcellus; assay: Bronchodilating effect in histamine induced male albino Dunkin-Hartley guinea pig model assessed as maximal efficacy at 0.3 nmol/kg, IT(Intratracheal) administered with compound followed by histamine addition at 5 to 30 mins and measured 1 hrs post compound treatment relative to control
[23] = system: Cavia porcellus; assay: Inhibition of histamine induced bronchoconstriction in male albino Dunkin-Hartley guinea pig model at 0.3 nmol/kg, IT(Intratracheal) preadministered with compound followed by histamine addition at 5 to 30 mins and measured 1 hrs post compound treatment relative to control; settings: read-out: INH
[24] = system: Trachea; assay: Inhibition of carbachol-induced smooth muscle contraction in male albino Dunkin-Hartley guinea pig trachea; settings: Cavia porcellus, read-out: pIC50 (converted)
[25] = in vitro; settings: human, hepatocytes
Description: Metabolic stability in human hepatocytes assessed as clearance measured per 10^6 cells at 1 uM incubated for 90 mins by LC-MS/MS analysis

[26] = in vivo; settings: male, Dunkin-Hartley, guinea pig, inhaled or intranasal, 3 mM
Description: Toxicity in male albino Dunkin-Hartley guinea pig model assessed as inhibition of carbachol-induced salivation at 3 mM, preadministered with compound for 10 mins via aerosol followed by anesthesia treatment 3 hrs post compound addition and further treated with carbachol and measured every 5 mins for 4 times

[27] = Metabolic stability in human hepatocytes assessed as parent compound remaining at 10 uM incubated for 60 mins by LC-MS/MS analysis
[28] = in vitro; settings: rat, lung S9 fraction
Description: Stability in rat lung S9 fraction assessed as half-life at 1 uM incubated for 60 mins by LC-MS/MS analysis

[29] = Stability in human plasma assessed as parent compound remaining at 10 uM incubated for 60 mins by LC-MS/MS analysis
[30] = Drug concentration in male albino Dunkin-Hartley guinea pig lung at 50 nmol/kg, IT(Intratracheal) measured after 3 hrs; settings: inhaled or intranasal
[31] = system: Cavia porcellus; assay: Inhibition of histamine induced bronchoconstriction in male albino Dunkin-Hartley guinea pig model at 1 nmol/kg, IT(Intratracheal) preadministered with compound followed by histamine addition at 5 to 30 mins and measured 1 hrs post compound treatment relative to control; settings: read-out: INH
[32] = Drug concentration in male albino Dunkin-Hartley guinea pig lung at 50 nmol/kg, IT(Intratracheal) measured after 0.083 hrs; settings: inhaled or intranasal
[33] = system: Cavia porcellus; assay: Inhibition of acetylcholine induced bronchoconstriction in male albino Dunkin-Hartley guinea pig model at 1 nmol/kg, IT(Intratracheal) preadministered with compound followed by acetylcholine addition at 5 to 30 mins and measured 24 hrs post compound treatment relative to control; settings: read-out: INH
[34] = Metabolic stability in rat hepatocytes assessed as parent compound remaining at 10 uM incubated for 60 mins by LC-MS/MS analysis
[35] = Stability in rat plasma assessed as parent compound remaining at 10 uM incubated for 60 mins by LC-MS/MS analysis
[36] = target: Muscarinic acetylcholine receptor M3 (Cavia porcellus, UniProt Q8VH26); assay: Antagonist activity at M3 receptor in male albino Dunkin-Hartley guinea pig trachea assessed as inhibition of carbachol-induced smooth muscle contraction in presence of propranolol
[37] = system: Cavia porcellus; assay: Inhibition of histamine induced bronchoconstriction in male albino Dunkin-Hartley guinea pig model at 1 nmol/kg, IT(Intratracheal) preadministered with compound followed by histamine addition at 5 to 30 mins and measured 24 hrs post compound treatment relative to control; settings: read-out: INH
[38] = in vitro; settings: human, lung S9 fraction
Description: Stability in human lung S9 fraction assessed as half-life at 1 uM incubated for 60 mins by LC-MS/MS analysis

[39] = system: Cavia porcellus; assay: Inhibition of acetylcholine induced bronchoconstriction in male albino Dunkin-Hartley guinea pig model at 1 nmol/kg, IT(Intratracheal) preadministered with compound followed by acetylcholine addition at 5 to 30 mins and measured 1 hrs post compound treatment relative to control; settings: read-out: INH
[40] = target: Muscarinic acetylcholine receptor M3 (Homo sapiens, UniProt P20309)
Description: Displacement of Scopolamine methyl chloride,[N-methyl-3H] from human muscarinic M3 receptor assessed as inhibition constant incubated for 2 hrs by Microbeta scintillation counter

[41] = in vitro; settings: guinea pig, hepatocytes
Description: Metabolic stability in guinea pig hepatocytes assessed as clearance measured per 10^6 cells at 1 uM incubated for 90 mins by LC-MS/MS analysis

[42] = organism: Cavia porcellus; assay: animal or person; settings: albino Dunkin-Hartley, 1 h, read-out: INH; remark: listed apart in the source
Description: Inhibition of acetylcholine induced bronchoconstriction in male albino Dunkin-Hartley guinea pig model at 1 nmol/kg, IT(Intratracheal) preadministered with compound followed by acetylcholine addition at 5 to 30 mins in presence of ICI-118551 and measured 1 hrs post compound treatment relative to control

[43] = Protein binding in human plasma at 5 uM incubated for 4 hrs by LC-MS/MS analysis
[44] = organism: Cavia porcellus; assay: animal or person; settings: albino Dunkin-Hartley, 24 h, read-out: INH
Description: Inhibition of acetylcholine induced bronchoconstriction in male albino Dunkin-Hartley guinea pig model at 1 nmol/kg, IT(Intratracheal) preadministered with compound followed by acetylcholine addition at 5 to 30 mins in presence of ICI-118551 and measured 24 hrs post compound treatment relative to control

[45] = in vitro; settings: guinea pig, lung S9 fraction
Description: Stability in guinea pig lung S9 fraction assessed as half-life at 1 uM incubated for 60 mins by LC-MS/MS analysis

[46] = Drug concentration in male albino Dunkin-Hartley guinea pig lung at 50 nmol/kg, IT(Intratracheal) measured after 24 hrs; settings: inhaled or intranasal

For `CN1CCC[C@@H](OC(=O)[C@](O)(c2ccccc2)c2cccc(OCCCNC(=O)c3ccc(CNC[C@H](O)c4ccc(O)c5[nH]c(=O)ccc45)cc3)c2)C1`, the inhibition in vivo at 0.0003 µmol/kg [1] was 54%, the inhibition in vivo at 0.0003 µmol/kg [2] was 57% and the Emax at 0.0003 µmol/kg [3] was 89%. The Vd at 1 h [4] was 0.75 L/kg, the inhibition in vivo at 0.0003 µmol/kg [5] was 89% and the clearance at 1 h [6] was 75 mL/min/kg. For the same compound, the remaining at 1 h, 1 µM [7] was 91.1%, the pIC50 [8] was 3.89 and the half-life at 2 h, 5 µM [9] was > 2.5 h. For the same compound, the inhibition in vivo at 0.0003 µmol/kg [10] was 78%, the hepatocyte CLint at 1.5 h, 1 µM [11] was 12 µL/min/1e6 cells and the pIC50 [12] was 3.51. The pIC50 [13] was 10.00, the pIC50 [14] was 3.50 and the pKi [15] was 10.60. The half-life at 2 h, 5 µM [16] was 1.3 h, the half-life [17] was 25 h and the inhibition at 3.167 h, 1000 µM [18] was 33%. The half-life at 2 h, 5 µM [19] was 0.15 h, the Emax at 0.0003 µmol/kg [20] was 89% and the inhibition in vivo at 0.0003 µmol/kg [21] was 84%. For the same compound, the Emax at 0.0003 µmol/kg [22] was 89%, the inhibition in vivo at 0.0003 µmol/kg [23] was 89% and the IC50 [24] was 0.126 nM. The hepatocyte CLint at 1.5 h, 1 µM [25] was 3 µL/min/1e6 cells and the inhibition at 3.167 h, 3000 µM [26] was 43%.

For `O=C(NCCCOc1cccc([C@](O)(C(=O)OCC2CCN(Cc3ccccc3)CC2)c2ccccc2)c1)c1ccc(CNC[C@H](O)c2ccc(O)c3[nH]c(=O)ccc23)cc1`, the remaining at 1 h, 10 µM [27] was 91%, the half-life at 1 h, 1 µM [28] was 2.37 h and the remaining at 1 h, 10 µM [29] was > 99%. For the same compound, the concentration at 3 h [30] was 1160 ng/g, the inhibition in vivo at 0.001 µmol/kg [31] was 66% and the inhibition in vivo at 0.0003 µmol/kg [5] was 49%. The remaining at 1 h, 1 µM [7] was 14%, the half-life at 2 h, 5 µM [9] was > 2.5 h and the inhibition in vivo at 0.0003 µmol/kg [10] was 23%. The hepatocyte CLint at 1.5 h, 1 µM [11] was 30 µL/min/1e6 cells, the concentration at 0.083 h [32] was 1270 ng/g and the inhibition in vivo at 0.001 µmol/kg [33] was 95%. For the same compound, the remaining at 1 h, 10 µM [34] was 70%, the pIC50 [13] was 9.50 and the remaining at 1 h, 10 µM [35] was 67%. The pIC50 [36] was 9.40, the pKi [15] was 10.00 and the inhibition in vivo at 0.001 µmol/kg [37] was 5%. For the same compound, the half-life at 1 h, 1 µM [38] was 3.22 h, the half-life at 2 h, 5 µM [16] was < 0.0833 h and the inhibition in vivo at 0.001 µmol/kg [39] was 94%. For the same compound, the pKi [40] was 9.40, the hepatocyte CLint at 1.5 h, 1 µM [41] was 316 µL/min/1e6 cells and the inhibition in vivo at 0.001 µmol/kg [42] was 87%. It also gave a fraction unbound at 4 h, 5 µM [43] of 0.01, an inhibition in vivo at 0.001 µmol/kg [44] of 79% and a half-life at 2 h, 5 µM [19] of 0.45 h. The half-life at 1 h, 1 µM [45] was 0.35 h, the inhibition in vivo at 0.0003 µmol/kg [23] was 34% and the IC50 [24] was 0.501 nM. It also gave a hepatocyte CLint at 1.5 h, 1 µM [25] of 25 µL/min/1e6 cells and a concentration at 24 h [46] of 1170 ng/g.
